Assay results published in US20260027124A1, “SUBSTITUTED IMIDAZO[1,2-A]PYRIDINE COMPOUNDS AND THE USE THEREOF IN THE TREATMENT AND PREVENTION OF FIBROSIS” (MOEXA PHARMACEUTICALS LIMITED, priority 2022, published 2026).

Tested on: TGF-β
Test: TGFβ/SMAD Signaling Pathway SBE Reporter-HEK293 luciferase assay (inhibition of TGF-β)
Assay type: cell-based
Details: SBE reporter-HEK293 cells, human TGFβ1 20 ng/ml; for IC50: 4 h compound pre-incubation, ~18 hours, luciferase luminescence; for inhibitory activity against TGF-β: statement in words
Description: Transforming TGF-β regulates the proliferation and differentiation of fibroblasts, which are the primary constituent cells of fibrous tissues. As such, representative compounds of the present disclosure were tested for their ability to inhibit TGF-β.
• 1. TGFβ/SMAD Signaling Pathway SBE Reporter—HEK293 Cell Line BPS Bioscience Catalog #: 60653 • 2. Human TGFβ1 (BPS Bioscience #90900-1) • 3. SIS3 (Sigma #S0447): inhibitor of TGFβ pathway. Prepare stock solution in DMSO. • 4. Growth medium: MEM medium (Invitrogen #11095-080)+10% FBS (ATCC #30-2020)+1% non-essential amino acids (Lonza #13-114E)+1 mM Na pyruvate (Lonza #13-115E)+1% Penicillin/Streptomycin (ATCC #30-2300)+400 μg/ml of Geneticin (Invitrogen #11811-031). • 5. Assay medium: MEM medium+0.5% FBS+1% non-essential amino acids+1 mM Na pyruvate+1% Pen/Strep • 6. 96-well tissue culture-treated white clear-bottom assay plate (Corning #3610) • 7. ONE-Step™ Luciferase Assay System (BPS, Cat. #60690)
SBE reporter-HEK293 cells were harvested from culture in growth medium and seeded at a density of ˜10,000 cells per well into a white clear-bottom 96-well microplate in 100 μl of assay medium. The plate containing cells were incubated at 37° C. in a CO2 incubator. 24 hours after seeding, cells were washed with 100 μL of assay buffer and treated with three fold serial dilution of compounds in 50 μl assay medium. Cells were incubated at 37° C. in a CO2 incubator for 4 hours. For control wells 50 μl assay medium was added with no inhibitor. Each treatment was done in triplicate. After 4 hours of incubation, 5 μl of human TGFβ1 in assay medium was added to cells (final TGFβ1 concentration=20 ng/ml). 5 μl of assay medium was added to the unstimulated control wells (for determining the basal activity). The plate with cells was incubated at 37° C. in a CO2 incubator overnight (˜18 hours). After 18 hours of incubation Luciferase assay was performed using ONE-Step™ Luciferase Assay System according to the protocol provided: 50 μl of ONE-Step™ Luciferase reagent was added per well and shook at room temperature for ˜10 minutes. Luminescence was measured using a luminometer.

How did the IC50 turn out when O=C(/C=C/c1c(-c2ccccc2)nc2ccccn12)N1CCOCC1 [Compound 8] was run?
Its IC50 is 3.72 µM.

What about the “inhibitory activity against TGF-β” value of the same compound?
The value was “showed inhibitory activity”.

COc1cc2c(cc1OC)CN(C(=O)/C=C/c1c(-c3ccccc3)nc3ccc(F)cn13)C2 [Compound 10] was tested. Which IC50 did it give?
The IC50 was 4.32 µM.

What about the “inhibitory activity against TGF-β” value of the same compound?
The value was “showed inhibitory activity”.

For COc1cc2c(cc1OC)CN(C(=O)/C=C/c1c(-c3ccccc3)n(C)c3ncccc13)CC2 [SIS3, reference compound], which IC50 is on record?
Its IC50 is 2.65 µM.

Which IC50 does the source give for COc1cc2c(cc1OC)CN(C(=O)/C=C/c1c(-c3ccc(Cl)cc3)nc3ccccn13)CC2 [Compound 6] here?
The IC50 was 5.45 µM.

And the “inhibitory activity against TGF-β” value?
Its value is “showed inhibitory activity”.

COc1cc2c(cc1OC)CN(C(=O)/C=C/c1c(-c3ccc(F)cc3)nc3ccccn13)C2 [Compound 11] was tested. Which IC50 did it give?
The IC50 was 3.52 µM.

What about the “inhibitory activity against TGF-β” value of the same compound?
Its value is “showed inhibitory activity”.

How did the IC50 turn out when COc1cc2c(cc1OC)CN(C(=O)/C=C/c1c(-c3ccccc3)nc3ccccn13)C2 [Compound 9] was run?
Its IC50 is 6.11 µM.

What about the “inhibitory activity against TGF-β” value of the same compound?
The value was “showed inhibitory activity”.
